# Assay results reported in patent US8071598B2, “3,9-diazabicyclo[3.3.1]nonane derivatives and their use as monoamine neurotransmitter re-uptake inhibitors” (Neurosearch A/S, priority 2006, dated 2011).
# pIC50: −log10 of the molar value. Counter-ions that a name gives are not always drawn. Like-named read-outs stand apart in the source and are kept apart here.
# Tests used:
# [1] = molecular target: T1, reuptake of dopamine (DA) in synaptosomes (Rattus norvegicus, UniProt P23977); assay: Inhibition of dopamine (DA) reuptake in synaptosomes; assay type: biochemical
# T1 construct: in synaptosomes as described in WO 97/16451; from tissue; host or cells: synaptosomes (brain tissue)
# T1 sequence (P23977 whole entry): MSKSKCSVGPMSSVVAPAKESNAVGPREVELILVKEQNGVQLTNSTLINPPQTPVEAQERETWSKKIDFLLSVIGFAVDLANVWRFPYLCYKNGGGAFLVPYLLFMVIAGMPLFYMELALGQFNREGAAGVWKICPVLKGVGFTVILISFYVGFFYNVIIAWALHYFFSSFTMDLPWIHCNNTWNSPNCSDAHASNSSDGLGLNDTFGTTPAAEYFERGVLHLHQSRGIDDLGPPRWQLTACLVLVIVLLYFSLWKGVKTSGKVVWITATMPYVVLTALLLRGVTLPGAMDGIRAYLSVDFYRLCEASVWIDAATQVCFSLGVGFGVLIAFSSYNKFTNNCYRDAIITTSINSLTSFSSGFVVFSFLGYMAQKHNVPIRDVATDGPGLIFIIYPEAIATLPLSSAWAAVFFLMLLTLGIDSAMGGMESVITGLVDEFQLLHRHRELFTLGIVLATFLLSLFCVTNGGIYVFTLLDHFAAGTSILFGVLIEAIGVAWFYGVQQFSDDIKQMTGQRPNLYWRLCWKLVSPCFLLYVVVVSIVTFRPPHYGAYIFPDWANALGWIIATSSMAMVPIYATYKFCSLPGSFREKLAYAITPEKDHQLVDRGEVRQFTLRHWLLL
# [2] = molecular target: T2, reuptake of noradrenaline (NA) in synaptosomes (Rattus norvegicus, UniProt Q63380); assay: Inhibition of noradrenaline (NA) reuptake in synaptosomes; assay type: biochemical
# T2 construct: in synaptosomes as described in WO 97/16451; from tissue; host or cells: synaptosomes (brain tissue)
# T2 sequence (Q63380 1-617): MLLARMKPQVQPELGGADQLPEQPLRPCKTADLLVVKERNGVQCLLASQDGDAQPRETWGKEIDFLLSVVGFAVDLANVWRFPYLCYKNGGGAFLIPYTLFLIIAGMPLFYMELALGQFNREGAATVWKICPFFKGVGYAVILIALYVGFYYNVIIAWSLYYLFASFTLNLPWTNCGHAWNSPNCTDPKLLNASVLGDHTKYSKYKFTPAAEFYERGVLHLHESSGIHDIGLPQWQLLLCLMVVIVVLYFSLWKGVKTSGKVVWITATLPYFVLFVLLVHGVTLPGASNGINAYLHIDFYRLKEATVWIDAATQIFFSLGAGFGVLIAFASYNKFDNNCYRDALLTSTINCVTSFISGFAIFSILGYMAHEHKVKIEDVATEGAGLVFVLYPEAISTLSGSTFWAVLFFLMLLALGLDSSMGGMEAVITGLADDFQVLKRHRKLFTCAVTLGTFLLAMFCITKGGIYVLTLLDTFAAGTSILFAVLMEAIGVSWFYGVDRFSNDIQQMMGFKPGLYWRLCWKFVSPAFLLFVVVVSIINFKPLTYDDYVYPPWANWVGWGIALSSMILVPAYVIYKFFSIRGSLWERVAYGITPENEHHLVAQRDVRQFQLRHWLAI
# [3] = molecular target: T3, reuptake of serotonine (5-HT) in synaptosomes (Rattus norvegicus, UniProt P31652); assay: Inhibition of serotonine (5-HT) reuptake in synaptosomes; assay type: biochemical
# T3 construct: in synaptosomes as described in WO 97/16451; from tissue; host or cells: synaptosomes (brain tissue)
# T3 sequence (P31652 whole entry): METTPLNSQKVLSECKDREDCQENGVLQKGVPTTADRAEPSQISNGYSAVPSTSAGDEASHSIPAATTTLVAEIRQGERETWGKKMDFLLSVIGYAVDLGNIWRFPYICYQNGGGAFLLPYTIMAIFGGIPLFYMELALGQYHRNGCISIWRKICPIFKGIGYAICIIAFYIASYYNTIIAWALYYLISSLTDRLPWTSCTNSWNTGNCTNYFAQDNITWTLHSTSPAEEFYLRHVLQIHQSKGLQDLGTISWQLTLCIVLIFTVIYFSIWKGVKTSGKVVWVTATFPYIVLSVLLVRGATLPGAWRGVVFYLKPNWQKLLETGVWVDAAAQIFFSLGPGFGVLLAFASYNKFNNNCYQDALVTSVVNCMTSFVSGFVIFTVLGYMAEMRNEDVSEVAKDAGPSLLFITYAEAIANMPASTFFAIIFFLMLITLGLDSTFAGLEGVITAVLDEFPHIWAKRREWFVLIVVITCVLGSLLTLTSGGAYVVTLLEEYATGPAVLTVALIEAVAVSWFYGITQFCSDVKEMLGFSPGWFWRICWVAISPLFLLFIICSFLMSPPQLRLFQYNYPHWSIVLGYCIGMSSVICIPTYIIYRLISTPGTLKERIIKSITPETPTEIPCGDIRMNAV
# Procedure: A number of compounds were tested for their ability to inhibit the reuptake of the monoamine neurotransmitters dopamine (DA) noradrenaline (NA) and serotonine (5-HT) in synaptosomes as described in WO 97/16451.
# The test values are given as IC50 (the concentration (μM) of the test substance which inhibits the specific binding of ^3H-DA, ^3H-NA, or ^3H-5-HT by 50%).
SMILES,melting point [°C],pIC50 [1],pIC50 [2],pIC50 [3],"pIC50 ([1]; synaptosomes, 3H-DA, read-out: DA-uptake IC50)","pIC50 ([2]; synaptosomes, 3H-NA, read-out: NA-uptake IC50)"
"COc1ccc2cc(N3CC4CCCC(C3)N4C)ccc2c1 (as salt: fumaric acid salt) [1st compound of Method C, 3-(6-Methoxy-naphthalen-2-yl)-9-methyl-3,9-diaza-bicyclo[3.3.1]nonane]",190 to 198.3,,,,,
"Clc1ccc(N2CC3CCCC(C2)N3)cc1Cl (as salt: hydrochloric acid salt) [1st compound of Method B, 3-(3,4-Dichloro-phenyl)-3,9-diaza-bicyclo[3.3.1]nonane]",295.4,,,,,
"Clc1ccc(N2CC3CCCC(C2)N3)cc1Cl [1st compound of Method B, 3-(3,4-Dichloro-phenyl)-3,9-diaza-bicyclo[3.3.1]nonane]",,6.80,8.13,9.16,,
"COc1ccc2cc(N3CC4CCCC(C3)N4C)ccc2c1 [1st compound of Method C, 3-(6-Methoxy-naphthalen-2-yl)-9-methyl-3,9-diaza-bicyclo[3.3.1]nonane]",,,7.72,8.09,6.64,
"CN1C2CCCC1CN(c1ccc3cc(O)ccc3c1)C2 [3rd compound of Method C, 6-(9-Methyl-3,9-diaza-bicyclo[3.3.1]non-3-yl)-naphthalen-2-ol]",,7.27,,8.10,,6.96
